According to PubChem BioAssay (NCI):
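Interpolation was linear, between the two tested concentrations surrounding the appropriate level; five concentrations were tested over 48 hours in 96-well plates. Here, GI50 denotes the concentration required for 50% inhibition of growth. TGI marks complete inhibition of growth.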

What was measured:
Assay in all cases: inhibition of tumour cell growth, NCI panel, 48 h
K-562 leukemia = system: K-562 leukemia
SK-OV-3 ovarian = system: SK-OV-3 ovarian
UACC-257 melanoma = system: UACC-257 melanoma
HS 578T breast = system: HS 578T breast
SF-295 CNS = system: SF-295 CNS
NCI-H23 lung = system: NCI-H23 lung
NCI-H460 lung = system: NCI-H460 lung
OVCAR-3 ovarian = system: OVCAR-3 ovarian
MDA-MB-231 breast = system: MDA-MB-231 breast
RXF 393 renal = system: RXF 393 renal
MOLT-4 leukemia = system: MOLT-4 leukemia
DU-145 prostate = system: DU-145 prostate

| Compound | TGI (K-562 leukemia) [µM] | TGI (SK-OV-3 ovarian) [µM] | TGI (UACC-257 melanoma) [µM] | TGI (HS 578T breast) [µM] | TGI (SF-295 CNS) [µM] | TGI (NCI-H23 lung) [µM] | TGI (NCI-H460 lung) [µM] | TGI (OVCAR-3 ovarian) [µM] | TGI (MDA-MB-231 breast) [µM] | TGI (RXF 393 renal) [µM] | TGI (MOLT-4 leukemia) [µM] | TGI (DU-145 prostate) [µM] | GI50 (UACC-257 melanoma) [µM] | GI50 (HS 578T breast) [µM] | GI50 (SF-295 CNS) [µM] | GI50 (OVCAR-3 ovarian) [µM] | GI50 (MDA-MB-231 breast) [µM] | GI50 (DU-145 prostate) [µM] | GI50 (RXF 393 renal) [µM] |
| --- | --- | --- | --- | --- | --- | --- | --- | --- | --- | --- | --- | --- | --- | --- | --- | --- | --- | --- | --- |
| CSC1=C(c2ccc(Cl)cc2)SC(N2CCCCC2)N1c1ccc([N+](=O)[O-])cc1 (configuration not stated) | > 100 | 81.9 | 85.8 | > 100 | 61.2 | 85.2 | 66.4 | 58.1 | 77.1 | > 100 | 75.9 |  |  |  |  |  |  |  |  |
| CC(=O)Nc1ccc2[nH]c(-c3cccc(F)c3)cc(=O)c2c1 |  | > 100 | > 100 | > 28.2 | > 77.2 | > 56.8 | > 100 |  | > 59.6 |  | > 100 |  |  |  |  |  |  |  |  |
| CCC1C(c2cc(OC)c(OC)c(OC)c2)c2cc3c(cc2OC1N1CCOCC1)OCO3 (configuration not stated) |  | 23.4 | 55.5 | 28.9 | 8.52 |  | 12.3 | 18.7 | 61.9 |  |  | 28.9 |  |  |  |  |  |  |  |
| N#Cc1ccc(OCc2nc3cc(C(F)(F)F)ccc3nc2-c2ccccc2)cc1 |  |  | > 100 | > 100 | > 100 | > 100 | > 100 | > 100 | > 100 |  | > 100 | > 100 |  |  |  |  |  |  |  |
| C[C@H](O)C1CC(Cn2nnc3c(N)ncnc32)C1(C)C (some centres not stated) | 0.0411 | > 100 | > 100 | > 100 | > 100 |  |  | > 100 | > 100 | > 100 |  | > 100 |  |  |  |  |  |  |  |
| CCOC(=O)CCC(NC(=O)c1ccc(N2CCN(c3c(C)nc(N)nc3N)CC2)cc1)C(=O)OCC (configuration not stated) | 0.844 | > 100 | > 55.9 | > 100 | > 100 | > 100 | 96.9 | > 100 | > 100 |  | > 100 | > 100 |  |  |  |  |  |  |  |
| CCC(=O)O[C@H]1CC[C@H]2[C@@H]3CCC4=C/C(=N/NC(=O)c5cccc6c(=O)c7ccccc7[nH]c56)CC[C@]4(C)[C@H]3CC[C@]12C | > 25 | > 25 | > 25 | > 25 | > 25 | > 25 | > 25 | > 25 | > 25 | > 25 | > 25 |  |  |  |  |  |  |  |  |
| Brc1ccc2[nH]cc(-c3nc(-c4c[nH]c5ccccc45)cs3)c2c1 | > 20.1 | 21.4 | 15.4 | > 47.9 | 10.6 | 8.84 | 4.9 | 15.5 | 7.68 | 16 |  | 10.4 |  |  |  |  |  |  |  |
| N#CC1(C#N)NC(c2ccsc2)C(C#N)(C#N)NC1c1ccsc1 (configuration not stated) | > 100 | > 100 | > 100 | > 100 | > 100 | > 100 | > 100 | > 100 | > 100 |  | > 100 | > 100 |  |  |  |  |  |  |  |
| O=c1[nH]nc(Cc2ccccc2)n1Nc1ccccc1 | > 100 |  | > 100 | > 100 | > 100 | > 100 | > 100 | > 100 | > 100 |  | > 100 | > 100 |  |  |  |  |  |  |  |
| COc1cc2c(cc1OC)CC(N=[N+]=[N-])c1cc(OC)c(OC)cc1/C=C\2 (configuration not stated) | > 100 | > 100 | > 100 | > 100 | > 100 |  | > 100 | > 100 | > 100 |  | > 100 | > 100 |  |  |  |  |  |  |  |
| COc1ccc2c(c1)c1c(n2CCN2CCCCC2)-c2ccccc2CC1 | 45.9 | 40.9 | 32.1 | 28.5 | 28.4 | 31.9 | 28.3 | 33.8 | 31.8 |  | 40.7 | > 100 |  |  |  |  |  |  |  |
| S=C1N=C(Cl)C2(NN1)c1ccccc1-c1ccccc12 | > 10 | > 10 | > 10 | > 10 |  | > 10 | > 10 |  | > 10 |  | > 10 | > 10 |  |  |  |  |  |  |  |
| COc1cccc(-c2cc(=O)c3c(C)ccnc3[nH]2)c1 | 0.397 | > 100 |  | > 100 | > 100 | > 100 | > 34.4 |  | > 100 | > 100 | > 100 |  |  |  |  |  |  |  |  |
| CC(C)=CCC/C(C)=C/CC/C(C)=C/CC/C(C)=C/CC/C(C)=C\CC/C(C)=C/CC/C(C)=C/CC/C(C)=C/Cc1cc(O)ccc1O | 26.4 | 15.6 | 2.91 | 8.93 | 3.76 | 1.96 | 12.5 | 1.94 | > 55.2 |  | 8.34 | > 72.9 |  |  |  |  |  |  |  |
| CCN(CC)C(=S)SS(=O)(=O)c1ccc([N+](=O)[O-])cc1 | > 100 | > 100 | 53.5 | > 100 | > 100 | > 100 | > 100 | > 100 | 66.4 | 32.1 |  | 82.4 | 24 | > 100 | 58.9 | 35.4 | 25.9 | 27.2 | 16 |
